From patent US20240148701A1, “WOULD HEALING METHODS” (The University of Sydney, priority 2021, published 2024)

What was measured:
eNOS = assay: NOS activity by radioimmunoassay in hind limb tissue; type: in vivo, mouse; conditions: ischemic and non-ischemic limbs, 14 days post-surgery
Protocol: (§1) Hind limb tissue including the gastrocnemius and adductor muscles were isolated and collected at 14 or 28 days. Tissues were separated and implanted in OCT or placed in cryovials and snap-frozen in liquid nitrogen or were fixed in 10% formalin for 24-hours and then moved to 70% ethanol for storage.
The activity of NOS was measured using radioimmunoassay according to manufacturer's instructions (Cayman Chemical, USA). Samples were prepared in triplicate and detected using a liquid scintillation counter (5 min detection, Tri-Carb 4910TR 100V, Perkin Elmer, USA). All samples were also assayed in the presence of L-NAME and this was subtracted from the baseline to give a readout of NOS activity.

HUVECs = assay: Tubule formation in HUVECs on reduced growth factor extracellular matrix; type: cell-based, human; conditions: 10 and 100 ng/ml compared to the control
Protocol: Human umbilical vein endothelial cells (HUVECs; Lonza C2519AS, pooled source, Australia) were grown using standard cell culture conditions in endothelial cell growth medium (EGM Plus®, containing 2% fetal bovine serum, Lonza, Australia). All cells were regularly confirmed to be mycoplasma negative. Two different pooled source cell lines were used in experiments and all were used within passages 2-4. Human adult dermal microvascular endothelial cells were also obtained from Lonza (CC-2543, Lonza Australia) and cultured as above but using endothelial growth medium 2-MV bulletkit. Endothelial colony forming cells (ECFCs) were derived from the peripheral blood of participants in the BioHEART study. This registered study (ACTRN12618001322224) complies with the Declaration of Helsinki and the study protocol and design has been approved by the Northern Sydney Local Health District Human Research Ethics Committee (HREC/17/HAWKE/343). […]
Once they were ˜70% confluent, cells were re-suspended in diluted EGM Plus® (1:3) and plated on reduced-growth factor extracellular matrix (15 mg/ml, Cultrex, Trevigen, USA) at a density of 1.5×10^4 cells/cm^2. […] Cells were incubated in an EVOS FL Auto Imaging system for 16 hours and tubule formation recorded every hour. Optimal tube formation occurred at the 8-hour timepoint; tubule number at this point was quantified manually using NIH Image J software. […]

superoxide = assay: Superoxide generation by lucigenin enhanced chemiluminescence in hind limb tissue; type: in vivo, mouse; conditions: after 14 days of infusion
Protocol: as §1
Frozen adductor tissue was prepared for lucigenin-enhanced chemiluminescence assay by homogenising in lysis buffer (250 mM sucrose in phosphate-buffered saline (mM: 129 NaCl, 7 Na2HPO4, 3 NaH2PO4·2H2O, pH 7.4, with protease inhibitors (cOmplete™ EDTA-free, Roche Diagnostics). Sample was added to opaque 96-well plates in the presence of lucigenin (20 μmol/1 N,N′-Dimethyl-9,9′-biacridinium dinitrate) and NADPH (100 μM; β-Nicotinamide adenine dinucleotide 2′-phosphate reduced tetrasodium salt hydrate). The reaction was conducted at room temperature and tracked using a luminometer (Veritas, Turner Biosystems, USA) with an average measurement taken from 20 cycles, as described in Bubb et al., (2018, Microcirulation, e12501). Replicates of each sample were treated with manganese TMPyP (Merck Millipore, Australia, a cell-permeable superoxide dismutase mimetic, 30 μmol/L), during the assay and any signal was subtracted from the total signal as non-superoxide background signal. Superoxide production was normalized to protein concentration or cell count.

With C[C@H](Cc1ccc2c(c1)OC(C(=O)[O-])(C(=O)[O-])O2)NC[C@H](O)c1cccc(Cl)c1.[Na+].[Na+] [CL 316,243] the eNOS activity (eNOS) was “enhanced eNOS activity”, the “number of tubules formed” value (HUVECs) was “significantly increased” and the “superoxide bioavailability in the ischemic limb” value (superoxide) was “significantly lower”.
